Test results from patent US8501793B2, “Blood flow promoters for cauda equina tissues” (Ono Pharmaceutical Co., Ltd., priority 2003, dated 2013).

System: rat
Experiment: measurement of the cauda equina blood flow and the blood pressure in urethane-anesthetized rat
Type: in vivo
Details: continuous infusion through caudal vein for 30 minutes, dose not given; for the increase rate of the cauda equina blood flow: observed until 30 minutes after, laser-Doppler flowmetry; for decrease of the blood pressure: systemic blood pressure from left carotid artery
Method: The common procedure based on the fundamental biological means was used as all procedures. Furthermore, the measuring method of the present invention was modified to improve the accuracy and/or sensitivity of measurement for evaluating the compound of the present invention. The detailed experimental method was as follows. • (i) The measurement of the cauda equina blood flow and the blood pressure Experiment: 1.5g/kg of urethane was administered intraperitoneally to the rat to be anesthetized, and the catheter, which is for measurement of blood pressure and ventricular rate, was placed in left carotid artery in supine position. The rat was reversed to prone position and the lumbar part was incised in the median line. The laminectomy was given to the fifth lumbar vertebra and the spinal cord (cauda equina) was exposed. The cauda equina blood flow was measured by the laser-Doppler flowmetry (OMEGAFLD FLO-NI and ADVANCE LASER FLOWMETER ALF21N, OMEGA WAVE Inc.) through a noncontact probe (ST-N type, OMEGA WAVE Inc.) and recorded with LINEARCORDER (Graphtech). The systemic blood pressure and the ventricular rate were measured from a left carotid artery with amplifier for the pressure measurement (GOULD) through a pressure transducer and recorded with LINEARCORDER (Graphtech).
After confirming each parameter of blood pressure, ventricular rate and blood flow was stabilized, the test compound was administrated by continuous infusion through the winged needle placed in caudal vein for 30 minutes. It observed until 30 minutes after the administration and the increase rate of the cauda equina blood flow was calculated. The increase rate of the cauda equina blood flow (%)=(B−A)/A×100 • A: the cauda equina blood flow before the administration of the test compound • B: the cauda equina blood flow after the administration of the test compound

Structure (SMILES) | the increase rate of the cauda equina blood flow | decrease of the blood pressure
CC(O)(C/C=C/[C@H]1CCC(=O)[C@@H]1CCSc1nc(C(=O)O)cs1)CC1CCCCC1 (stereo partly drawn) [compound 53, 2-[(2-{(1R,2R)-2-[(1E)-5-cyclohexyl-4-hydroxy-4-methyl-1-pentenyl]-5-oxocyclopentyl}ethyl)sulfanyl]-1,3-thiazole-4-carboxylic acid] | 31% | 10 mmHg
O=C(O)c1csc(SCCN2C(=O)OC[C@@H]2/C=C/[C@@H](O)C2(CCCCF)CCC2)n1 [compound 8-1, 2-{[2-((4S)-4-{(1E,3R)-3-[1-(4-fluorobutyl)cyclobutyl]-3-hydroxy-1-propenyl}-2-oxo-1,3-oxazolidin-3-yl)ethyl]sulfanyl}-1,3-thiazole-4-carboxylic acid] | 35% | 6 mmHg
